Tests used:
[1] = cited from earlier work
[2] = Stabilization experiments with LECIGON, accelerated stability study at 25° C. for 12 days; assay type: physicochemical; conditions: all combinations of Table 6
Procedure: HPLC—Agilent 1100 with DAD detector and cooled injector; OpenLAB CDS Chemstation C.01.05 (Agilent Technologies Inc., Santa Clara, Calif., U.S.A.).
As reference product, LECIGON™ having no stabilizing modification was used.
The following stabilizing modifications of the LECIGON™ composition were tested, the corresponding experimental compositions (“Exp.”) in Table 4 above being given within parentheses:
• a) 0.1% ascorbic acid (Exp. 5) • b) 0.5% citrate buffer (Exp. 12) • c) 0.5% citric acid (Exp. 4) 3. Removal of oxygen • nitrogen gas (Exp. 15) 4. Removal of metal ions • 0.05% EDTA (Exp. 3) 5. Combination of reduced pH and anti-oxidant (Exp. 13) 6. Combination of anti-oxidant and removal of oxygen • a) 0.1% ascorbic acid and 0.05% EDTA (Exp. 14) • b) 0.5% citric acid and 0.05% EDTA (Exp. 10) 7. Enclosure in an aluminium bag (Exp. 8).
The results are ranked with respect to reduction of hydrazine (DHPA, RRT 7.1). […] Levodopa was stable in all combinations and is therefore not included in the table. In the table, “Carb” is carbidopa, and “Ent” is entacapone.

[3] = cited from earlier work; remark: listed apart in the source
[4] = intravenous administration (3 mg/kg); cited from earlier work

SMILES	solubility in water [1]	Stability of levodopa in the gel combinations [2]	metabolized to dopamine before levodopa reaches the brain ([3]; intake of levodopa alone)	bioavailability ([3]; levodopa via DUODOPA gel, same as in a tablet)	elimination half-life (t1/2β) [4]
C[C@@](Cc1ccc(O)c(O)c1)(NN)C(=O)O [Carbidopa, (−)-L-α-hydrazino-α-methyl-β-(3,4-dihydroxybenzene) propanoic acid monohydrate]	slightly soluble in water				
N[C@@H](Cc1ccc(O)c(O)c1)C(=O)O [Levodopa, (−)-L-α-amino-β-(3,4-dihydroxybenzene) propanoic acid]	slightly soluble in water	stable	more than 90%	81-98%	
Cc1ccc(C(=O)c2cc(O)c(O)c([N+](=O)[O-])c2)cc1 [Tolcapone, (3,4-Dihydroxy-5-nitrophenyl)(4-methylphenyl)methanone]					2.9 h
